Source: US20230055705A1, “SUBSTITUTED THIOPHENE CARBOXAMIDES AND DERIVATIVES THEREOF” (Bayer Aktiengesellschaft, priority 2019, published 2023)

What was measured:
[1] = tested on: Peronospora parasitica; experiment: In vivo preventive test on Peronospora parasitica (Crucifer downy mildew); conditions: Hyaloperonospora parasitica, in Brassica oleracea, 120 h, cabbage, evaluated 5 days after inoculation, read-out: efficacy; for pest or weed control at 31 ppm: 31 ppm of active ingredient; for pest or weed control at 125 ppm: 125 ppm of active ingredient; for pest or weed control at 500 ppm: 500 ppm of active ingredient
Method in brief: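 Young cabbage plants were sprayed with compound in acetone/DMSO/Tween diluted with water, then inoculated 72 h later with a Peronospora parasitica spore suspension. Plants were kept 5 days at 20 °C and 100% RH. Efficacy was scored with 0% equal to solvent-treated controls and 100% meaning no disease.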

[2] = tested on: Xanthomonas campestris pv. campestris; experiment: Xanthomonas campestris pv. campestris in vitro cell test; type: cell-based; conditions: 20 ppm of active ingredient, 24 h incubation, read-out: efficacy (inhibition of bacteria growth)
Method in brief: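 Liquid-culture growth test in LB broth, with compound dissolved in DMSO (≤1% final) and added to an OD-adjusted bacterial inoculum. Absorbance after 24 h incubation was compared with wells lacking active ingredient to give inhibition.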

[3] = tested on: Pseudomonas syringae pv. tomato; experiment: In vivo preventive test on Pseudomonas syringae pv. tomato (bacterial speck on tomato); conditions: evaluated 5 or 6 days after inoculation, read-out: efficacy; for pest or weed control at 31 ppm: 31 ppm of active ingredient; for pest or weed control at 500 ppm: 500 ppm of active ingredient
Method in brief: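 Young tomato plants sprayed with compound in acetone/DMSO/Tween diluted in water; solvent-only controls. Inoculated 72 h later by spraying leaves with bacterial suspension; 4 days saturated atmosphere then 1–2 days at 70–80% RH, 22 °C day/20 °C night. Efficacy scored 5–6 days post-inoculation, 0% = control, 100% = no disease.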

C[C@H](NC(=S)c1sc(Cl)c(Cl)c1Cl)C(=O)O [I.113]
pest or weed control at 31 ppm [1]: 80 to 89%
pest or weed control at 125 ppm [1]: 90 to 100%
pest or weed control at 500 ppm [1]: 90 to 100%
inhibition at 20 ppm [2]: ≤ 30%

COC(=O)[C@H](CSC(=O)N(C)C)NC(=O)c1sc(Cl)c(Cl)c1Cl [I.142]
pest or weed control at 31 ppm [1]: 90 to 100%
pest or weed control at 125 ppm [1]: 90 to 100%
inhibition at 20 ppm [2]: ≤ 30%
pest or weed control at 31 ppm [3]: 70 to 79%

CCOC(=O)C(CC(F)(F)F)NC(=O)c1sc(Cl)c(Cl)c1Cl (centres unmarked) [I.048]
pest or weed control at 31 ppm [1]: 90 to 100%
pest or weed control at 125 ppm [1]: 90 to 100%
pest or weed control at 500 ppm [1]: 90 to 100%
inhibition at 20 ppm [2]: ≤ 30%
pest or weed control at 500 ppm [3]: 70 to 79%

CCOC(=O)C(C#N)NC(=O)c1sc(Cl)c(Cl)c1Cl (centres unmarked) [I.009]
pest or weed control at 31 ppm [1]: 90 to 100%
pest or weed control at 125 ppm [1]: 90 to 100%
pest or weed control at 500 ppm [1]: 90 to 100%
inhibition at 20 ppm [2]: ≤ 30%
pest or weed control at 500 ppm [3]: 90 to 100%

COC(=O)[C@H](CC(N)=O)NC(=O)c1sc(Cl)c(Cl)c1Cl [I.015]
pest or weed control at 31 ppm [1]: 90 to 100%
pest or weed control at 125 ppm [1]: 90 to 100%
inhibition at 20 ppm [2]: ≤ 30%
pest or weed control at 31 ppm [3]: 80 to 89%

COC(=O)C[C@H](NC(=O)c1sc(Cl)c(Cl)c1Cl)C(=O)OC [I.144]
pest or weed control at 31 ppm [1]: 90 to 100%
pest or weed control at 125 ppm [1]: 90 to 100%
inhibition at 20 ppm [2]: ≤ 30%
pest or weed control at 31 ppm [3]: 80 to 89%

O=C(O)CNC(=S)c1sc(Cl)c(Cl)c1Cl [I.022, N-[(3,4,5-trichloro-2-thienyl)carbonothioyl]glycine]
pest or weed control at 31 ppm [1]: 90 to 100%
pest or weed control at 125 ppm [1]: 90 to 100%
pest or weed control at 500 ppm [1]: 90 to 100%
inhibition at 20 ppm [2]: ≤ 30%
pest or weed control at 500 ppm [3]: 90 to 100%

COC(=O)C(Cc1c[nH]cn1)NC(=O)c1sc(Cl)c(Cl)c1Cl (centres unmarked) [I.012]
pest or weed control at 31 ppm [1]: 70 to 79%
pest or weed control at 125 ppm [1]: 90 to 100%
pest or weed control at 500 ppm [1]: 90 to 100%
inhibition at 20 ppm [2]: ≤ 30%
pest or weed control at 31 ppm [3]: ≥ 70%

COC(=O)[C@H](CCCNC(=N)N)NC(=O)c1sc(Cl)c(Cl)c1Cl [I.008]
pest or weed control at 31 ppm [1]: 90 to 100%
pest or weed control at 125 ppm [1]: 90 to 100%
pest or weed control at 500 ppm [1]: 90 to 100%
inhibition at 20 ppm [2]: ≤ 30%
pest or weed control at 500 ppm [3]: 70 to 79%

CCOC(=O)C(CSC)NC(=O)c1sc(Cl)c(Cl)c1Cl (centres unmarked) [I.143]
pest or weed control at 31 ppm [1]: 90 to 100%
pest or weed control at 125 ppm [1]: 90 to 100%
inhibition at 20 ppm [2]: ≤ 30%
pest or weed control at 31 ppm [3]: 90 to 100%

COC(=O)C(CC(F)F)NC(=O)c1sc(Cl)c(Cl)c1Cl (centres unmarked) [I.016]
pest or weed control at 31 ppm [1]: 90 to 100%
pest or weed control at 125 ppm [1]: 90 to 100%
pest or weed control at 500 ppm [1]: 90 to 100%
inhibition at 20 ppm [2]: ≤ 30%
pest or weed control at 31 ppm [3]: 70 to 79%
pest or weed control at 500 ppm [3]: 90 to 100%

C[C@H](NC(=O)c1sc(Cl)c(Cl)c1Cl)C(N)=O [I.119]
pest or weed control at 31 ppm [1]: 90 to 100%
pest or weed control at 125 ppm [1]: 90 to 100%
inhibition at 20 ppm [2]: ≤ 30%
pest or weed control at 31 ppm [3]: 70 to 79%
pest or weed control at 500 ppm [3]: 90 to 100%

CCOC(=O)C(CC(N)=O)NC(=O)c1sc(Cl)c(Cl)c1Cl (centres unmarked) [I.046]
pest or weed control at 31 ppm [1]: 90 to 100%
pest or weed control at 125 ppm [1]: 90 to 100%
pest or weed control at 500 ppm [1]: 90 to 100%
inhibition at 20 ppm [2]: ≤ 30%

COC(=O)CNC(=S)c1sc(Cl)c(Cl)c1Cl [I.038, methyl N-[(3,4,5-trichloro-2-thienyl)carbonothioyl]glycinate]
pest or weed control at 31 ppm [1]: 90 to 100%
pest or weed control at 125 ppm [1]: 90 to 100%
pest or weed control at 500 ppm [1]: 90 to 100%
inhibition at 20 ppm [2]: ≤ 30%
pest or weed control at 500 ppm [3]: 70 to 79%
